Test [1] is described as follows: Ionophoric activity across pyranine dye encapsulated pH 7 egg yolk L-alpha-phosphatidylcholine-based liposomal membranes assessed as chloride ion transport by measuring induction of pH discharge at 1.95 x 10^-3 mol% after 20 mins in presence of RbCl loaded external vesicles by fluorescence method.
Test [2] has as its system MCF7. Briefly: Cytotoxicity against human MCF7 cells assessed as reduction in cell viability up to 10 uM after 12 hrs in absence of chloride by MTT assay. In kind it is functional, cell-based. (Tetrazolium dyes change colour on reduction, which living cells bring about.)
The nature of test [3]: Ionophoric activity across pyranine dye encapsulated pH 7 egg yolk L-alpha-phosphatidylcholine-based liposomal membranes assessed as nitrate ion transport by measuring induction of pH discharge at 1.95 x 10^-3 mol% after 20 mins in presence of NaNO3 loaded external vesicles by fluorescence method.
The test system of test [4] is MCF7. The test is described as follows: Cytotoxicity against human MCF7 cells assessed as reduction in cell viability after 48 hrs by MTT assay. In kind it is functional, cell-based. The note with it: MCF7, 48 h.
The subject of the next test is A549. The test is described as follows: Cytotoxicity against human A549 cells assessed as reduction in cell viability after 48 hrs by MTT assay. In kind it is functional, cell-based. As to conditions: A549, 48 h.
The test system of test [5] is HeLa. The test is described as follows: Cytotoxicity against human HeLa cells assessed as reduction in cell viability up to 10 uM after 12 hrs in presence of chloride by MTT assay. It counts as functional, cell-based.
Test [6] can be described thus: Ionophoric activity across lucigenin probe encapsulated pH 7 egg yolk L-alpha-phosphatidylcholine-based large unilamellar vesicles loaded with Na2SO4 assessed as chloride ion efflux at 7.81 x 10^-3mol% after 20 mins in presence of NaCl/Na2SO4 loaded external vesicles by fluorescence method.
Test [7] concerns HeLa. Briefly: Disruption of mitochondrial membrane potential in human HeLa cells assessed as decrease in ratio of red to green fluorescence at 5 to 10 uM after 24 hrs by JC1 staining based fluorescence microscopic analysis. It counts as functional, cell-based.
For test [8], the system named is MCF7. The test is described as follows: Ionophoric activity across human MCF7 cells assessed as chloride ion efflux up to 10 uM after 2 hrs by MQAE dye based fluorescence assay. In kind it is cell-based.
A further test concerns HepG2. The test is described as follows: Cytotoxicity against human HepG2 cells assessed as reduction in cell viability at 50 uM after 48 hrs by MTT assay relative to control. In kind it is functional. The note with it: HepG2, 48 h.
The nature of test [9]: Binding affinity to chloride ion assessed as 1:1 compound-Cl- complex formation at 4.1 mM using tetra(n-butyl)ammonium chloride by ESI MS spectrometric method.

Calls of active or inactive are those of the source. The rule behind the calls is not given here.

Broadly, the IC50 is the concentration needed to halve the response being measured. Broadly, the inhibition is the change of the read-out against control, counted positive when it falls.

As to `O=[N+]([O-])c1cc(-c2nc3ccc(C(F)(F)F)cc3[nH]2)cc(-c2nc3ccc(C(F)(F)F)cc3[nH]2)c1`, the outcome (in [1]; with MCF7 [2]; in the test on HeLa [5]; in the test on HeLa [7]; in the test with MCF7 [8]; in [9]) was Active. Further, the result in test [3] and in test [6] was inactive. Further, the IC50 in the test on MCF7 [4] lay in the range of 9.4 to 9.7 µM; in the test with A549, 3.8 to 3.9 µM. Further, the inhibition at 50 µM with HepG2 was determined as 101%.

The values are drawn from ChEMBL document CHEMBL4152235, “Synthesis, anionophoric activity and apoptosis-inducing bioactivity of benzimidazolyl-based transmembrane anion transporters” (Eur J Med Chem, 2018).
